A word on the Dmax: it is the greatest extent of degradation seen. By DC50 is commonly meant the midpoint of the concentration-degradation curve.

The values that follow come from US20250170248A1, “SMARCA DEGRADERS AND USES THEREOF” (Kymera Therapeutics, Inc., priority 2021, published 2025).

Holding throughout (format): cell-based
Assay [1] has as its target T1, SMARCA2 (Homo sapiens, UniProt P51531). Description: MSD SMARCA2 degradation in A549 cell line. The settings on record: for Dmax: A549, A549 cells; for Dmax / DC50: 24 h; for DC50: read-out: SMARCA2 MSD A549 degradation 24 h: Average external-Abs DC50. The method in brief:
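A549 cells treated 24 h with compound, 3-fold series from 1000 nM. Lysates captured on MSD plates and SMARCA2 quantified with anti-SMARCA2 and SULFO-TAG secondary antibodies (electrochemiluminescence). DC50 and Dmax (% degradation at 24 h) reported as letter bins.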

Another assay deals with T2, SMARCA4 (Homo sapiens, UniProt P51532).
T2 construct: SMARCA2/SMARCA4 protein degradation selectivity in MV4-11 cells; endogenous in cells; host or cells: MV4-11
T2 sequence (P51532 whole entry): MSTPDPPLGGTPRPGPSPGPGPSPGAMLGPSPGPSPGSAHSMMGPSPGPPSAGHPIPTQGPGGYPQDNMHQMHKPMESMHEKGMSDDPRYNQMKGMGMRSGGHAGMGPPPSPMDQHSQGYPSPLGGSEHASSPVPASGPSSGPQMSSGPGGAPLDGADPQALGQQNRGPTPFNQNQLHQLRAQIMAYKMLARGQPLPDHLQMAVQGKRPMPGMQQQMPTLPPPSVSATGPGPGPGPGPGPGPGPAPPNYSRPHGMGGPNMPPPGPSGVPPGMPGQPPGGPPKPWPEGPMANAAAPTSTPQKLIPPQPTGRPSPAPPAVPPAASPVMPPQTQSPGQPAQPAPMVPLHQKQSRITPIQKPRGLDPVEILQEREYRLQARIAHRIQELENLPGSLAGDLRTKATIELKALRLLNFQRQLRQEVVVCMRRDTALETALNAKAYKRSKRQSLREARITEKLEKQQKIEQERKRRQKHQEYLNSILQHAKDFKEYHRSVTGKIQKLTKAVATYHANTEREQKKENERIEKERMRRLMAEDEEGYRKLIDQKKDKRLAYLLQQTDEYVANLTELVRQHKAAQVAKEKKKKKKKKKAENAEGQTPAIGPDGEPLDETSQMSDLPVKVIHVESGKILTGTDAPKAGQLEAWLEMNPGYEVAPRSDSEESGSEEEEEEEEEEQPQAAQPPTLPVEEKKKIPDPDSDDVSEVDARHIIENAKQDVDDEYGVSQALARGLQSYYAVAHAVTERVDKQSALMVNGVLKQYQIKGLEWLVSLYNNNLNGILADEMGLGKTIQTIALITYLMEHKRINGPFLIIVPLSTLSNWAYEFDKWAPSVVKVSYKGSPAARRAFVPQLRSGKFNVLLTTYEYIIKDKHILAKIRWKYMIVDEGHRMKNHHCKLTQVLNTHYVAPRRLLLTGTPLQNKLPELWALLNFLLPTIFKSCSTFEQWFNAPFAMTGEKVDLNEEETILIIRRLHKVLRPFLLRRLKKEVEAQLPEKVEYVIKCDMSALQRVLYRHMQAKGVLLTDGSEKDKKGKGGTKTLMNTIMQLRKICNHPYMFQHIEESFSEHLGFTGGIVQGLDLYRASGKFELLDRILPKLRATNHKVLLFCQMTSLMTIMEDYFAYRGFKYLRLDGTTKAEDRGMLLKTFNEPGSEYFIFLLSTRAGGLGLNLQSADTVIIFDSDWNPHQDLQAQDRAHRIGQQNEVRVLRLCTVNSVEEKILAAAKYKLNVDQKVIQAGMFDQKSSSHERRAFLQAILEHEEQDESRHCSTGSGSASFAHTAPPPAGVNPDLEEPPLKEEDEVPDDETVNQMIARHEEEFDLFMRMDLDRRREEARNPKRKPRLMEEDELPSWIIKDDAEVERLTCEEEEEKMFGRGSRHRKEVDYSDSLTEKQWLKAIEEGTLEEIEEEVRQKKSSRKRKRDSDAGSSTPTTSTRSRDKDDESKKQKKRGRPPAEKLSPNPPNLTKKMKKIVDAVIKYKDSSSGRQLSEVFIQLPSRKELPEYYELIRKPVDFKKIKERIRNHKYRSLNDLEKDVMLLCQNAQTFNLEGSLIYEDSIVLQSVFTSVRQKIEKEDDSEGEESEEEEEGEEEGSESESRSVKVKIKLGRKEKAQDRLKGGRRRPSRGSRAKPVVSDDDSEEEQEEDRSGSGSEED
Description: SMARCA4 Western blot degradation in MV4-11 cells. The settings on record: for Dmax: MV4-11, MV4-11 cells, read-out: SMARCA4 MSD MV411 degradation 24 h: average Dmax %; for Dmax / DC50: 24 h; for DC50: read-out: SMARCA4 MSD MV411 degradation 24 h: Mean external-Abs DC50. The method in brief:
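24 h compound exposure, MV4-11; RIPA lysates → SDS-PAGE → NC membrane; anti-SMARCA2/BRM, anti-BRG1, β-actin loading control; LI-COR fluorescence read. DC50 and Dmax at 24 h reported as letter bins.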
Background: A western blot detects proteins with antibodies after separation by electrophoresis.

Assay [2] addresses T1, SMARCA2. Description: SMARCA2 Western blot degradation in MV4-11 cells. On the set-up: SMARCA2/SMARCA4 protein degradation selectivity in MV4-11 cells; endogenous in cells; host or cells: MV4-11. The settings on record: for Dmax: MV4-11, MV4-11 cells, read-out: SMARCA2 MSD MV411 degradation 24 h: average Dmax %; for DC50: read-out: SMARCA2 MSD MV411 degradation 24 h: Mean external-Abs DC50; for Selectivity in MV411: SMARCA2/4 selectivity.

T1 sequence (P51531 whole entry): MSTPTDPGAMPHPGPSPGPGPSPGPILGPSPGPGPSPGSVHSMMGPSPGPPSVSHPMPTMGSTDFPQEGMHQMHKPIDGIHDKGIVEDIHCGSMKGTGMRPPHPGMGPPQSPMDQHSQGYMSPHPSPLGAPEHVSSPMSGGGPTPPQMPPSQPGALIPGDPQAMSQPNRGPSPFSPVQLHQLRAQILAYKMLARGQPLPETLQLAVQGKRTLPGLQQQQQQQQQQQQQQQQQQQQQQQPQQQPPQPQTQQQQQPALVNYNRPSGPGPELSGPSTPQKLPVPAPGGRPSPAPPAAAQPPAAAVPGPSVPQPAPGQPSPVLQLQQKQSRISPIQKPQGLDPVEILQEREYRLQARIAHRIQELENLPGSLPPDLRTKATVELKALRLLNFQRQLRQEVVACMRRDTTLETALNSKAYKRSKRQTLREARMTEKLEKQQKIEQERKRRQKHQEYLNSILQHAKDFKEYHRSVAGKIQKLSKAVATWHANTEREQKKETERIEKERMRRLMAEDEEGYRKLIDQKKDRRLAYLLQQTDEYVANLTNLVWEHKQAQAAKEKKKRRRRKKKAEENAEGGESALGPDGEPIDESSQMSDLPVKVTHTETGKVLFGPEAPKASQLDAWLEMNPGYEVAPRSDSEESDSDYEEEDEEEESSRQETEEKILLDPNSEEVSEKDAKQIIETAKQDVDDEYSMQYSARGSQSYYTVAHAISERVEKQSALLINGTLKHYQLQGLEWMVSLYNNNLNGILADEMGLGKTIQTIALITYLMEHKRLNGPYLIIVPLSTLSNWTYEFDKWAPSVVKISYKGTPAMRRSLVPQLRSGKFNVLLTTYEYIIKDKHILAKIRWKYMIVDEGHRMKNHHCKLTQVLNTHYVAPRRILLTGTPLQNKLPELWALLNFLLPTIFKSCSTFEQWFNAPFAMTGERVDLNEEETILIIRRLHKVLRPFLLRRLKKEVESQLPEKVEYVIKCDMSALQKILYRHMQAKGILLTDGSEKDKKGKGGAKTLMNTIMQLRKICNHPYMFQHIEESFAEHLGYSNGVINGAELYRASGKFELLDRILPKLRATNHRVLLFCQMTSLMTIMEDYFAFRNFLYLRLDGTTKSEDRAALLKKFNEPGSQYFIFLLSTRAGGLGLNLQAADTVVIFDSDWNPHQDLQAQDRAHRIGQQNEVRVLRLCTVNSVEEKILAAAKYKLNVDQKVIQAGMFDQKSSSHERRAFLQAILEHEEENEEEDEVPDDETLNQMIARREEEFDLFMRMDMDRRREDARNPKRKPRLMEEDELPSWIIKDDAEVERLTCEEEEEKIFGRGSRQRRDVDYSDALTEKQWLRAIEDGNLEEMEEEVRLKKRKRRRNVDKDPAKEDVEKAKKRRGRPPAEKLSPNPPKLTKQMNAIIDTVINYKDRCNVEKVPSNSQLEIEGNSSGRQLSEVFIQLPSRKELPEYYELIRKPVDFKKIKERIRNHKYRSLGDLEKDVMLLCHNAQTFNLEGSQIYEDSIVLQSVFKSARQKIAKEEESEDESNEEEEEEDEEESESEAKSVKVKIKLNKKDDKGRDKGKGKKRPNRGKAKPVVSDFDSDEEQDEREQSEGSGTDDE

For `Cc1ncsc1-c1ccc(CNC(=O)[C@@H]2C[C@@H](O)CN2C(=O)C(c2cc(OCCCCN3CCC(c4cnc(N5CCN6c7cc(-c8ccccc8O)nnc7NC[C@@H]6C5)nc4)CC3)no2)C(C)C)cc1` (stereo partly drawn) [I-51, (2S,4R)-4-hydroxy-1-(2-(3-(4-(4-(2-((R)-2-(2-hydroxyphenyl)-6a,7,9,10-tetrahydro-5H-pyrazino[1′,2′:4,5]pyrazino[2,3-c]pyridazin-8(6H)-yl)pyrimidin-5-yl)piperidin-1-yl)butoxy)isoxazol-5-yl)-3-methylbutanoyl)-N-(4-(4-methylthiazol-5-yl)benzyl)pyrrolidine-2-carboxamide], the greatest degradation seen (Dmax) was 70 to 90% at SMARCA2 [1], above 90% at SMARCA4 and above 90% on SMARCA2 [2] (24 h). For the same molecule, the DC50 was 10 to 50 nM on SMARCA2 [1] (A549 cells); 1 to 10 nM on SMARCA4 (MV4-11 cells); below 1 nM at SMARCA2 [2] (MV4-11 cells, 24 h). Besides, on SMARCA2 [2] (MV4-11 cells), the “Selectivity in MV411” value is recorded as “D (D (<10 fold))”.

Take `C#Cc1ccc(CNC(=O)[C@@H]2C[C@@H](O)CN2C(=O)[C@@H](NC(=O)[C@H]2CCC3(CC2)C[C@H](N2CCC(N4CCC(N5CCN6c7cc(-c8ccccc8O)nnc7NC[C@H]6C5)CC4)CC2)C3)C(C)(C)C)cc1` (single isomer, unassigned) [I-174]: the Dmax on SMARCA2 [1] was above 90%; at SMARCA4 it was below 50%; at SMARCA2 [2] (24 h) it was 70 to 90%. For the same molecule, the 50% degradation concentration (DC50) at SMARCA2 [1] (A549 cells) is above 100 nM; on SMARCA4 (MV4-11 cells), above 100 nM; at SMARCA2 [2] (MV4-11 cells, 24 h) it was 10 to 100 nM. Further, the “Selectivity in MV411” value at SMARCA2 [2] (MV4-11 cells) is given as “B (B (>100-500 fold))”.

For the molecule `C#Cc1ccc(CNC(=O)[C@@H]2C[C@@H](O)CN2C(=O)[C@@H](NC(=O)[C@H]2CC3(CC[C@H](N4CCN(c5cnc(N6CCc7[nH]c8nnc(-c9ccccc9O)cc8c7[C@H]6C)nc5)CC4)CC3)C2)C(C)(C)C)cc1` (single isomer, unassigned) [I-300], on SMARCA2 [1] (A549 cells), the “SMARCA2 MSD A549 degradation 24 h: Average Dmax %” value was “A (A (>90% degradation))” and the DC50 was above 100 nM. Further, on SMARCA4 (MV4-11 cells), the “SMARCA4 MSD MV411 degradation 24 h: average Dmax %” value is recorded as “D (D (<50% degradation))” and the 50% degradation concentration (DC50) was above 100 nM. Moreover, on SMARCA2 [2] (MV4-11 cells, 24 h), the “SMARCA2 MSD MV411 degradation 24 h: average Dmax %” value is listed as “B (B (>70-90% degradation))” and the DC50 fell in the range of 10 to 100 nM. Further, the “Selectivity in MV411” value at SMARCA2 [2] (MV4-11 cells) is on record as “C (C (10-100 fold))”.

As to `Cc1ncsc1-c1ccc(CNC(=O)[C@@H]2C[C@@H](O)CN2C(=O)[C@@H](NC(=O)C2(F)CC2)C(C)(C)C)c(OCCCCN2CCC(c3cnc(N4CCN5c6cc(-c7ccccc7O)nnc6NC[C@H]5C4)nc3)CC2)c1` (single isomer, unassigned) [I-49], the Dmax on SMARCA2 [1], at SMARCA4 and on SMARCA2 [2] (24 h) was above 90% throughout. Moreover, the half-maximal degradation concentration (DC50) was 10 to 50 nM on SMARCA2 [1] (A549 cells); 1 to 10 nM on SMARCA4 (MV4-11 cells); below 1 nM on SMARCA2 [2] (MV4-11 cells, 24 h). Besides, the “Selectivity in MV411” value on SMARCA2 [2] (MV4-11 cells) is reported as “C (C (10-100 fold))”.

Regarding `C#Cc1ccc(CNC(=O)[C@@H]2C[C@@H](O)CN2C(=O)[C@@H](NC(=O)[C@H]2CCC3(CC2)C[C@H](N2CCN(c4cnc(N5CCN6c7cc(-c8ccccc8O)nnc7NC[C@H]6C5)nc4)CC24CC4)C3)C(C)(C)C)cc1` (some centres unmarked) [I-266], the values for the Dmax on SMARCA2 [1], on SMARCA4 and at SMARCA2 [2] (24 h) were above 90%, 50 to 70% and above 90%, respectively. The DC50 on SMARCA2 [1] (A549 cells) is 50 to 100 nM; at SMARCA4 (MV4-11 cells) it was above 100 nM; at SMARCA2 [2] (MV4-11 cells, 24 h), 10 to 100 nM. In addition, at SMARCA2 [2] (MV4-11 cells), the “Selectivity in MV411” value is on record as “C (C (10-100 fold))”.
